Patent publication US5955426A, “Cyclic hexapeptide somatostatin analogues” (Diatide, Inc., priority 1997, dated 1999)
Square brackets hold non-standard residues; d marks the D form. Peptide text beside a SMILES is read from it. * marks the point of attachment. X11 = NCCCC[C@H](NC(=O)C*)C(=O)NCCCC[C@H](N)C(=O)NCC(=O)N[C@@H](CS)C(N)=O; X13 = CC(=O)NCSC[C@H](NC(=O)CNC(=O)[C@H](CSCNC(C)=O)NC(=O)C*)C(N)=O; X7 = NC(=O)[C@H](CS)NC(=O)CNC(=O)[C@@H](N)CCCCNC(=O)C*; X5 = O=C(CNC(=O)[C@H](CS)NC(=O)C*)N[C@@H](CS)C(=O)O; X6 = NC(=O)[C@H](CS)NC(=O)CNC(=O)[C@H](CS)NC(=O)C*; X12 = NC(=O)[C@H](CS)NC(=O)CNC(=O)CNC(=O)C*; NMeF = CN[C@@H](Cc1ccccc1)C(=O)O; hCys = N[C@@H](CCS)C(=O)O

Target: T1, somatostatin receptor (Rattus norvegicus, UniProt P30680)
T1 construct: endogenous in cells; host or cells: AR42J rat pancreatic tumor cell line (membrane preparation)
T1 sequence (P30680 whole entry): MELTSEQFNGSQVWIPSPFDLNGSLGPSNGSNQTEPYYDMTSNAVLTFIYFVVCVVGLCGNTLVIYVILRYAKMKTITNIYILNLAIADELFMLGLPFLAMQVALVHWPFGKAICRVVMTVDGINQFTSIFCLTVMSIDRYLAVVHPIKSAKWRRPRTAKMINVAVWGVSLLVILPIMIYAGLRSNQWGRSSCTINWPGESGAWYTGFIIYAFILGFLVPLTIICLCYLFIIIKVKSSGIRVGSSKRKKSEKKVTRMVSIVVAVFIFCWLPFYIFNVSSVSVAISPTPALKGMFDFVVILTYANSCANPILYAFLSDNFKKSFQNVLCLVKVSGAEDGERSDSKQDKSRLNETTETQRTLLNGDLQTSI
Assay: Inhibition of binding of (125I-Tyr11)somatostatin-14 to AR42J rat pancreatic tumor cell membranes
Conditions: 0.5 nM (125I-Tyr11)somatostatin-14, 25 min at 30° C., read-out: K1 (inhibition constant)
Experimental: Inhibition of Binding of (^125 I-Tyr^11)somatostatin-14 to AR42J Rat Pancreatic Tumor Cell Membranes
The rat pancreatic tumor cell line AR42J which expresses the somatostatin receptor was cultured in Dulbecco's minimal essential media (DMEM) supplemented with 10% fetal bovine serum (FBS) and 8 mM glutamine in a humidified 5% CO2 atmosphere at 37° C. in T-flasks. Harvested cells were homogenized in cold 50 mM Tris-HCl buffer (pH 7.4) and the homogenate then centrifuged at 39,000 g for 10 min at 4° C. Pellets were washed once with buffer and then resuspended in an ice-cold solution of 10 mM Tris-HCl (pH 7.4). Equal aliquots of this cell membrane preparation were incubated with (^125 I-Tyr^11)somatostatin-14 (at a final concentration of 0.5 nM and 750,000 cpm/mL, at a specific activity of 2000 Ci/mmol, Amersham, Arlington Heights, Ill.) and peptide at a final concentration of from 10^-11 M to 10^-6 M in a solution of 50 mM HEPES (pH 7.4) containing 1% bovine serum albumin (BSA), 5 mM MgCl2, Trasylol (200,000 International Units), bacitracin (0.02 mg/mL) and phenylmethylsulfonylfluoride (0.02 mg/mL) for 25 min at 30° C. Using a filtration manifold, this mixture was filtered through a polyethyleneimine-washed GC/F filter (Whatman, Maidstone, England), and the residue remaining on the filter washed thrice with 5 mL cold HEPES buffer. The filter and a sample of the filter washings were then counted in a gamma counter. To assess non-specific binding, the assay was performed in the presence of unlabeled somatostatin-14 at 200 nM. Data analysis including Hill plots of the data provided inhibition constants (see Bylund & Yamamura, "Methods of receptor binding", in Methods in Neurotransmitter Receptor Analysis, Yamamura et al., eds., Raven Press: New York, 1990).

Structure (SMILES) | Ki
CC(C)[C@@H]1NC(=O)[C@H](CCCCN)NC(=O)[C@@H](Cc2c[nH]c3ccccc23)NC(=O)[C@H](Cc2ccc(O)cc2)NC(=O)[C@H](Cc2ccccc2)N(C)C(=O)[C@H](CCSCC(=O)N[C@@H](CS)C(=O)NCC(=O)N[C@@H](CS)C(=O)O)NC1=O [cyclo.(N-CH3)FYWD KV.Hcy(CH2 CO.CGC)] (cyclo(KV[hCys](X5)[NMeF]Y[dW])) | 1.8 nM
CC(C)[C@@H]1NC(=O)[C@H](CCCCN)NC(=O)[C@@H](Cc2c[nH]c3ccccc23)NC(=O)[C@H](Cc2ccc(O)cc2)NC(=O)[C@H](Cc2ccccc2)N(C)C(=O)[C@H](CCSCC(=O)NCC(=O)NCC(=O)N[C@@H](CS)C(N)=O)NC1=O [cyclo.(N-CH3)FYWD KV.Hcy(CH2 CO.GGC.amide)] (cyclo([NMeF]Y[dW]KV[hCys](X12))) | 2.4 nM
CC(C)[C@@H]1NC(=O)[C@H](CCCCN)NC(=O)[C@@H](Cc2c[nH]c3ccccc23)NC(=O)[C@H](Cc2ccc(O)cc2)NC(=O)[C@H](Cc2ccccc2)N(C)C(=O)[C@H](CCSCC(=O)N[C@@H](CCCCN)C(=O)NCCCC[C@H](N)C(=O)NCC(=O)N[C@@H](CS)C(N)=O)NC1=O [cyclo.(N-CH3)FYWD KV.Hcy(CH2 CO.K(ε-K)GC.amide)] (cyclo([NMeF]Y[dW]KV[hCys](X11))) | 0.65 nM
CC(C)[C@@H]1NC(=O)[C@H](CCCCN)NC(=O)[C@@H](Cc2c[nH]c3ccccc23)NC(=O)[C@H](Cc2ccc(O)cc2)NC(=O)[C@H](Cc2ccccc2)N(C)C(=O)[C@H](CCSCC(=O)N[C@@H](CS)C(=O)NCC(=O)N[C@@H](CS)C(N)=O)NC1=O [cyclo.(N-CH3)FYWD KV.Hcy(CH2 CO.CGC.amide)] (cyclo([NMeF]Y[dW]KV[hCys](X6))) | 1.5 nM
CC(C)[C@@H]1NC(=O)[C@H](CCCCN)NC(=O)[C@@H](Cc2c[nH]c3ccccc23)NC(=O)[C@H](Cc2ccc(O)cc2)NC(=O)[C@H](Cc2ccccc2)N(C)C(=O)[C@H](CCSCC(=O)NCCCC[C@H](N)C(=O)NCC(=O)N[C@@H](CS)C(N)=O)NC1=O [cyclo.(N-CH3)FYWD KV.Hcy(CH2 CO.(ε-K)GC.amide)] (cyclo([NMeF]Y[dW]KV[hCys](X7))) | 2 nM
CC(=O)NCSC[C@H](NC(=O)CNC(=O)[C@H](CSCNC(C)=O)NC(=O)CSCC[C@@H]1NC(=O)[C@H](C(C)C)NC(=O)[C@H](CCCCN)NC(=O)[C@@H](Cc2c[nH]c3ccccc23)NC(=O)[C@H](Cc2ccc(O)cc2)NC(=O)[C@H](Cc2ccccc2)N(C)C1=O)C(N)=O [cyclo.(N-CH3)FYWD KV.Hcy(CH2 CO.CAcm GCAcm.amide)] (cyclo(KV[hCys](X13)[NMeF]Y[dW])) | 0.79 nM
